Assays:
[1] = system: NCI-H1299; test: Induction of apoptosis in human […] cells expressing wild type p53 at IC50 assessed as histone release by ELISA relative to control; assay type: functional
[2] = Induction of apoptosis in human NL20 cells at IC50 assessed as histone release by ELISA relative to control; assay type: cell-based
[3] = Cytotoxicity against p53 deficient human H1299 cells after 24 hrs by MTT assay; assay type: functional, cell-based; conditions: NCI-H1299, 24 h
[4] = Cytotoxicity against p53 deficient human H1299 cells at 100 uM after 24 hrs by MTT assay; assay type: functional; conditions: NCI-H1299, 24 h, read-out: GI
[5] = system: NCI-H1299; test: Induction of apoptosis in p53 deficient human H1299 cells at IC50 assessed as histone release by ELISA relative to control; assay type: functional
[6] = Cytotoxicity against human NL20 cells at IC50 after 24 hrs by MTT assay; assay type: cell-based; conditions: nl20, 24 h
[7] = system: A549; test: Cytotoxicity against human A549 cells; assay type: functional, cell-based

SMILES | inhibition of growth at 100 µM [4] | further results
COCO[C@@H]1C[C@]23CC[C@@H]4[C@](C)(COC(=O)NCc5ccc(OC)cc5)CCC[C@@]4(C)[C@@H]2CC[C@@]1(C)C3 | 89% | fold change (FC) [1]: 2; fold change (FC) [2]: 4; IC50 [3]: 21 µM; fold change (FC) [5]: 7; Activity [6]: 20%
C[C@@]12CC[C@@H]3[C@@](CC[C@@H]4[C@](C)(COC(=O)/C=C/C(F)(F)F)CCC[C@]43C)(C[C@H]1O)C2 | – | IC50 [7]: 4.1 µM
COCO[C@@H]1C[C@]23CC[C@@H]4[C@](C)(CO)CCC[C@@]4(C)[C@@H]2CC[C@@]1(C)C3 | 15% | –
COCO[C@@H]1C[C@]23CC[C@@H]4[C@](C)(COC(=O)c5ccccc5)CCC[C@@]4(C)[C@@H]2CC[C@@]1(C)C3 | 8% | –
COCO[C@@H]1C[C@]23CC[C@@H]4[C@](C)(COC(C)=O)CCC[C@@]4(C)[C@@H]2CC[C@@]1(C)C3 | 13% | –
CCCCCCCC(=O)OC[C@]1(C)CCC[C@]2(C)[C@@H]1CC[C@@]13C[C@@H](OCOC)[C@@](C)(CC[C@H]12)C3 | 95% | fold change (FC) [1]: 2; fold change (FC) [2]: 4; IC50 [3]: 14 µM; fold change (FC) [5]: 10; Activity [6]: 20%
COCO[C@@H]1C[C@]23CC[C@@H]4[C@](C)(COC(=O)C(C)C)CCC[C@@]4(C)[C@@H]2CC[C@@]1(C)C3 | 20% | –
COCO[C@@H]1C[C@]23CC[C@@H]4[C@](C)(COC(=O)COc5ccccc5)CCC[C@@]4(C)[C@@H]2CC[C@@]1(C)C3 | 70% | –
COCO[C@@H]1C[C@]23CC[C@@H]4[C@](C)(COC(=O)Nc5ccccc5)CCC[C@@]4(C)[C@@H]2CC[C@@]1(C)C3 | 65% | –
COCO[C@@H]1C[C@]23CC[C@@H]4[C@](C)(COC(=O)Nc5ccc(C(C)=O)cc5)CCC[C@@]4(C)[C@@H]2CC[C@@]1(C)C3 | 60% | –
CCCNC(=O)OC[C@]1(C)CCC[C@]2(C)[C@@H]1CC[C@@]13C[C@@H](OCOC)[C@@](C)(CC[C@H]12)C3 | 20% | –
COCO[C@@H]1C[C@]23CC[C@@H]4[C@](C)(COC(=O)NCc5ccccc5)CCC[C@@]4(C)[C@@H]2CC[C@@]1(C)C3 | 50% | –
CCCCCCCC(=O)OC[C@]1(C)CCC[C@]2(C)[C@@H]1CC[C@@]13C[C@@H](O)[C@@](C)(CC[C@H]12)C3 | 48% | –
